Laboratory results as given in patent publication US20040034001A1, “Treatment of hypertension in women receiving hormone replacement therapy” (Schering AG, priority 2002, published 2004).

System: hypertensive postmenopausal women
Assay: Post hoc analysis of blood pressure in women with elevated BP at baseline, multicenter 1-year endometrium study, no ACE inhibitor
Assay type: in vivo, human
Conditions: after 11 weeks; subset with baseline systolic BP>=140 mm Hg and or diastolic BP>=90 mm Hg
Procedure: Administration of DRSP/E2 to Hypertensive Postmenopausal Women not being Treated with an ACE Inhibitor.
In a multicenter, double-blind randomized study examining the effect on the endometrium of 1142 postmenopausal women treated for 1 year with 1 of 4 doses of DRSP (0.5,1,2, and 3 mg) compared with E2 alone, mean systolic and diastolic blood pressure decreased from baseline for all treatment groups.

## C[C@]12CC[C@@H]3c4ccc(O)cc4CC[C@H]3[C@@H]1CC[C@@H]2O [E2, 17-β-estradiol]
  mean decrease in systolic blood pressure: −3.7 mm Hg
